In EP4559908A1, “HETEROARYL DERIVATIVE COMPOUND AND USE THEREOF” (S2CBio Inc., priority 2022, dated 2024) one finds inhibition data, which are given here for 13 compounds.

The target in this assay is T1, human ANO6 (variant 5) (Homo sapiens, UniProt Q4KMQ2).
T1 construct: expressed in transfected cells; host or cells: Fischer rat thyroid (FRT) cells
T1 sequence (Q4KMQ2 1-931 isoform Q4KMQ2-2): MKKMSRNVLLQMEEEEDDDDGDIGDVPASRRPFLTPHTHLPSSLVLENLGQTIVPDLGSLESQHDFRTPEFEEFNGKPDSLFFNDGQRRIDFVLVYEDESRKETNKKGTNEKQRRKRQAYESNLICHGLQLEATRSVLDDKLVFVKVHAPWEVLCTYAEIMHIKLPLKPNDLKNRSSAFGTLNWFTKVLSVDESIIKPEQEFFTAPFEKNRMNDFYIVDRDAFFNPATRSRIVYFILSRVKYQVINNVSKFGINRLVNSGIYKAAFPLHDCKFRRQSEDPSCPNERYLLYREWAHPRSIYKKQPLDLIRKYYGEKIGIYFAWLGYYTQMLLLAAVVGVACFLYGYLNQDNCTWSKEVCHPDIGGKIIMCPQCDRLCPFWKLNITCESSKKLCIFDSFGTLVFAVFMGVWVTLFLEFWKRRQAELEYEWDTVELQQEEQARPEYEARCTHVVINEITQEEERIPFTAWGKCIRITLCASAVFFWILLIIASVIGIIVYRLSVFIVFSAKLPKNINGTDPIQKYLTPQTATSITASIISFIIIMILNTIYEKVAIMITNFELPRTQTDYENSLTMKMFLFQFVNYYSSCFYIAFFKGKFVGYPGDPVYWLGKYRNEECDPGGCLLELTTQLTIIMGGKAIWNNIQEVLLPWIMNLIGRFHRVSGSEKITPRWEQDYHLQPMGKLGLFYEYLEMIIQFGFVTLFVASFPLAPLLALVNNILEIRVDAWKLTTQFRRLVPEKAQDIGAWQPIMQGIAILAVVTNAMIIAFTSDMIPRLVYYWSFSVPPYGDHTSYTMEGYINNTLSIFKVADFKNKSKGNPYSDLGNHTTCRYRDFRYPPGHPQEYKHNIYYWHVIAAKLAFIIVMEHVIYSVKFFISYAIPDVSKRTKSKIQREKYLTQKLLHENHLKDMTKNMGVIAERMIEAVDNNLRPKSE
Description: Lact C2 assay (measuring phosphatidylserine externalization scramblase function). The class given is cell-based. The note with it: FRT, FRT cells expressing human ANO6 (variant 5), ionomycin 10 µM, Lact-C2-GFP fluorescence, average of three tests; for inhibition at 0.05 µM: compound 50 nM, read-out: % Inhibition 50 nM. In a few lines: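 Cells were pretreated 10 min with compound (50 nM, 100 nM, 1 µM; 1% DMSO), then given 10 µM ionomycin for 10 min. Surface phosphatidylserine was stained with 500 nM Lact-C2-GFP (10 min, 37 °C), fixed and imaged. Inhibition was scaled between untreated (100%) and ionomycin-alone (0%) wells.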

[1] abbreviates: compound 1 µM, read-out: % Inhibition 1 µM.

Like-named read-outs stand apart in the source and are kept apart here.

As for `Fc1ccc2nc(-c3cccc(Nc4ncc(-c5ncccn5)cn4)c3)[nH]c2c1` [Example 247, N-(3-(6-fluoro-1H-benzo[d]imidazol-2-yl)phenyl)-[2,5'-bipyrimidin]-2'-amine], the inhibition at 1 µM under setting [1] was in the range of 30 to 60%. Still for that read-out and setting: in the case of `Fc1cccnc1-c1ccc(Nc2cccc(-c3nc4ccc(C(F)(F)F)cc4[nH]3)c2)cc1` [Example 251, N-(4-(3-fluoropyridin-2-yl)phenyl)-3-(6-(trifluoromethyl)-1H-benzo[d]imidazol-2-yl)aniline] it was over 60%. As to `Fc1cccc(-c2ccc(Nc3cccc(-c4nc5ccc(C(F)(F)F)cc5[nH]4)c3)cc2)n1` [Example 252, N-(4-(6-fluoropyridin-2-yl)phenyl)-3-(6-(trifluoromethyl)-1H-benzo[d]imidazol-2-yl)aniline], the inhibition at 0.05 µM was over 60%. The inhibition at 1 µM under setting [1] is over 60%. On to `Fc1ccc(-c2ccc(Nc3cccc(-c4nc5ccc(C(F)(F)F)cc5[nH]4)c3)cc2)nc1` [Example 253, N-(4-(5-fluoropyridin-2-yl)phenyl)-3-(6-(trifluoromethyl)-1H-benzo[d]imidazol-2-yl)aniline], for which the inhibition at 0.05 µM is over 60%. The inhibition at 1 µM under setting [1] is over 60%. For `FC(F)(F)c1cc2[nH]c(-c3cccc(Nc4ccc(-c5cccnn5)cn4)c3)nc2cn1` [Example 254, 5-(pyridazin-3-yl)-N-(3-(6-(trifluoromethyl)-1H-imidazo[4,5-c]pyridin-2-yl)phenyl)pyridin-2-amine], the inhibition at 0.05 µM was over 60%. Moreover, under setting [1], the inhibition at 1 µM was over 60%. As to `c1ccc(-c2ccc(Nc3cccc(-c4nc5ccccc5[nH]4)c3)nn2)nc1` [Example 255, N-(3-(1H-benzo[d]imidazol-2-yl)phenyl)-6-(pyridin-2-yl)pyrimidin-3-amine], the inhibition at 1 µM (read-out: % Inhibition 1 µM, compound 1 µM) was over 60%.

As to `FC(F)(F)c1ccc2nc(-c3cccc(Nc4ccc(-c5ccccn5)nn4)c3)[nH]c2c1` [Example 256, 6-(pyridin-2-yl)-N-(3-(6-(trifluoromethyl)-1H-benzo[d]imidazol-2-yl)phenyl)pyridazin-3-amine], the inhibition at 1 µM under setting [1] was over 60%. On the same count and under the same terms, in the case of `c1cc(Nc2ccc(-c3ccncn3)nn2)cc(-c2nc3ccccc3[nH]2)c1` [Example 257, N-(3-(1H-benzo[d]imidazol-2-yl)phenyl)-6-(pyrimidin-4-yl)pyridazin-3-amine] it was 30 to 60%.

`Fc1cccc(-c2cnc(Nc3cccc(-c4nc5ccc(C(F)(F)F)cc5[nH]4)c3)nc2)n1` [Example 258, 5-(6-fluoropyridin-2-yl)-N-(3-(6-(trifluoromethyl)-1H-benzo[d]imidazol-2-yl)phenyl)pyrimidin-2-amine]: the inhibition at 0.05 µM was over 60%. In addition, the inhibition at 1 µM under setting [1] is over 60%. As to `Fc1cccc(-c2cnc(Nc3cccc(-c4nc5ccccc5[nH]4)c3)nc2)n1` [Example 259, N-(3-(1H-benzo[d]imidazol-2-yl)phenyl)-5-(6-fluoropyridin-2-yl) pyrimidin-2-amine], the inhibition at 0.05 µM was 30 to 60%. Moreover, the inhibition at 1 µM under setting [1] was over 60%. Taken in the same sequence, the figures for `Fc1ccc(-c2cnc(Nc3cccc(-c4nc5ccc(C(F)(F)F)cc5[nH]4)c3)nc2)nc1` [Example 260, 5-(5-fluoropyridin-2-yl)-N-(3-(6-(trifluoromethyl)-1H-benzo[d]imidazol-2-yl)phenyl)pyrimidin-2-amine] were 30 to 60% and over 60%. Taken in the same sequence, the figures for `FC(F)(F)c1ccc2nc(-c3ccnc(Nc4ccc(-c5cccnn5)cc4)c3)[nH]c2c1` [Example 261, N-(4-(pyridazin-3-yl)phenyl)-4-(6-(trifluoromethyl)-1H-benzo[d]imidazol-2-yl) pyridin-2-amine] were 30 to 60% and over 60%.

Consider `FC(F)(F)c1ccc2nc(-c3cncc(Nc4ccc(-c5cccnn5)cc4)c3)[nH]c2c1` [Example 262, N-(4-(pyridazin-3-yl)phenyl)-5-(6-(trifluoromethyl)-1H-benzo[d]imidazol-2-yl)pyridin-3-amine], for which the inhibition at 0.05 µM is over 60%.
